Experiment: xn = mol fraction of the nth substance listed

OC1CCCCC1 + COCCO
303.15 K, 101.3 kPa
Conditions	viscosity [mPa·s]
x2 = 0.135	31.36
x2 = 0.232	23.64
x2 = 0.3144	17.36
x2 = 0.4389	9.281
x2 = 0.4908	6.609
x2 = 0.5515	4.075
x2 = 0.9188	0.811

C1CCCCCCC1 + Cc1ccccc1
303 K, 101 kPa
Conditions	viscosity [mPa·s]
x2 = 0.0411	1.726
x2 = 0.1605	1.259
x2 = 0.3113	1.024
x2 = 0.4874	0.8342
x2 = 0.6192	0.7126
x2 = 0.7463	0.627
x2 = 0.8614	0.5716
x2 = 0.9174	0.5484
x2 = 0.973	0.5311

CCC(N)=O + [Al+3].[Cl-].[Cl-].[Cl-]
viscosity [mPa·s], 101 kPa
Conditions	x2 = 0.5	x2 = 0.52	x2 = 0.57	x2 = 0.6	x2 = 0.63
313 K	32.65	25.38	23.95	24.65	25.32
323 K	23.49	19.12	17.93	18.32	18.7

C1CCCCCCC1 + CCCCCCCCCC
viscosity [mPa·s], 101 kPa
Conditions	x1 = 0.0657	x1 = 0.1971	x1 = 0.282	x1 = 0.386	x1 = 0.508	x1 = 0.5849	x1 = 0.7031	x1 = 0.7984	x1 = 0.9053
308.15 K	0.7647	0.829	0.881	0.9331	1.026	1.093	1.213	1.345	1.55
313.15 K	0.7178	0.7776	0.819	0.8631	0.9523	1.006	1.12	1.24	1.406

CCCCC + COC(C)=O
298.15 K, 101 kPa
Conditions	viscosity [mPa·s]
x1 = 0.05	0.342
x1 = 0.1	0.324
x1 = 0.1087	0.322
x1 = 0.15	0.309
x1 = 0.2	0.296
x1 = 0.2088	0.295
x1 = 0.25	0.285
x1 = 0.3	0.275
x1 = 0.3035	0.273
x1 = 0.35	0.266
x1 = 0.4	0.257
x1 = 0.401	0.258
x1 = 0.45	0.25
x1 = 0.5	0.243
x1 = 0.5022	0.243
x1 = 0.55	0.237
x1 = 0.5972	0.232
x1 = 0.6	0.232
x1 = 0.65	0.227
x1 = 0.7	0.223
x1 = 0.7028	0.223
x1 = 0.75	0.22
x1 = 0.8	0.218
x1 = 0.8002	0.219
x1 = 0.85	0.217
x1 = 0.9	0.216
x1 = 0.9009	0.218
x1 = 0.95	0.215

CCCCCCCCCCCCCC[P+](CCCCCC)(CCCCCC)CCCCCC.c1ccc2[n-]nnc2c1 + O=C=O
Conditions	viscosity [mPa·s]
298.15 K, 100 kPa, x2 = 0.19	443

CCN(CC)CCO + CC(=O)c1ccccc1
viscosity [mPa·s], 101.3 kPa
Conditions	x2 = 0.1124	x2 = 0.2218	x2 = 0.3282	x2 = 0.4318	x2 = 0.5327	x2 = 0.631	x2 = 0.7268	x2 = 0.8201	x2 = 0.9112
303.15 K	3.131	2.954	2.778	2.601	2.424	2.247	2.07	1.894	1.717
313.15 K	2.304	2.193	2.083	1.972	1.862	1.752	1.641	1.531	1.42
323.15 K	1.458	1.446	1.434	1.419	1.401	1.381	1.36	1.335	1.311

CCCCC + CCCCCCCCCC
viscosity [mPa·s]
Conditions	x1 = 0.1031	x1 = 0.2082	x1 = 0.3062	x1 = 0.408	x1 = 0.5061	x1 = 0.6029	x1 = 0.7058	x1 = 0.804	x1 = 0.9008
297.95 K, 101 kPa	0.7711	0.6992	0.6136	0.5536	0.4708	0.4339	0.3667	0.32	0.2645
298.15 K, 101.33 kPa	0.7775	0.6969	0.6169	0.5449	0.4818	0.4285	0.3626	0.3143	0.2671
313.05 K, 101 kPa	0.6585	0.5949	0.5183	0.4627	0.4237	0.3644	0.3189	0.2801	0.2396

CS(C)=O + CCCO
Conditions	viscosity [mPa·s]
298.15 K, 101.3 kPa, x1 = 0.0789	1.75
298.15 K, 101.3 kPa, x1 = 0.1613	1.651
298.15 K, 101.3 kPa, x1 = 0.339	1.535
298.15 K, 101.3 kPa, x1 = 0.434	1.541
298.15 K, 101.3 kPa, x1 = 0.5363	1.562
298.15 K, 101.3 kPa, x1 = 0.6421	1.641
298.15 K, 101.3 kPa, x1 = 0.755	1.736
298.15 K, 101.3 kPa, x1 = 0.8737	1.845
298.15 K, 101.31 kPa, x1 = 0.1053	1.666
298.15 K, 101.31 kPa, x1 = 0.2078	1.55
298.15 K, 101.31 kPa, x1 = 0.413	1.496
298.15 K, 101.31 kPa, x1 = 0.5099	1.527
298.15 K, 101.31 kPa, x1 = 0.7025	1.664
298.15 K, 101.31 kPa, x1 = 0.7984	1.746
298.15 K, 101.31 kPa, x1 = 0.9011	1.871
303.15 K, 101 kPa, x1 = 0.5	1.425
303.15 K, 101.3 kPa, x1 = 0.0789	1.63
303.15 K, 101.3 kPa, x1 = 0.1613	1.54
303.15 K, 101.3 kPa, x1 = 0.2478	1.452
303.15 K, 101.3 kPa, x1 = 0.5363	1.436
303.15 K, 101.3 kPa, x1 = 0.6421	1.495
303.15 K, 101.3 kPa, x1 = 0.755	1.57
303.15 K, 101.3 kPa, x1 = 0.8737	1.676
308.15 K, 101.31 kPa, x1 = 0.2973	1.249
308.15 K, 101.31 kPa, x1 = 0.5099	1.29
308.15 K, 101.31 kPa, x1 = 0.5989	1.329
308.15 K, 101.31 kPa, x1 = 0.7984	1.465
308.15 K, 101.31 kPa, x1 = 0.9011	1.56
313.15 K, 101 kPa, x1 = 0.7998	1.335
318.15 K, 101.31 kPa, x1 = 0.1053	1.116
318.15 K, 101.31 kPa, x1 = 0.2078	1.064
318.15 K, 101.31 kPa, x1 = 0.2973	1.048
318.15 K, 101.31 kPa, x1 = 0.413	1.064
318.15 K, 101.31 kPa, x1 = 0.5099	1.093
318.15 K, 101.31 kPa, x1 = 0.5989	1.129
318.15 K, 101.31 kPa, x1 = 0.7025	1.189
318.15 K, 101.31 kPa, x1 = 0.7984	1.239
318.15 K, 101.31 kPa, x1 = 0.9011	1.314

CS(C)=O + C1CCOC1
298.15 K, 101 kPa
Conditions	viscosity [mPa·s]
x2 = 0.27	1.523
x2 = 0.52	1.112
x2 = 0.76	0.7376
